Like-named read-outs stand apart in the source and are kept apart here.
Legend:
[1] = target: T1, CGRP receptor (SK-N-MC cell membranes) (Homo sapiens, UniProt O60894+Q16602); assay: CGRP Binding Assay ([125I]-CGRP radioligand binding, SK-N-MC homogenate)
T1 construct: endogenous in cells; host or cells: SK-N-MC cells (membrane homogenate)

[2] = system: human cerebral vessels (CGRP-induced dilation); assay: Ex Vivo Human Cerebral Artery Assay, reversal of CGRP-induced relaxation; settings: reversal of 1 nM hCGRP-induced relaxation, vessels pre-contracted with 10 mM KCl
From the text: Rationale and Overview. To provided direct evidence of the ability for novel compounds to reverse CGRP-induced dilation in human cerebral vessels, an ex vivo assay was design. Briefly, isolated vessel rings were mounted in a tissue bath where vessels were pre-contracted with potassium chloride (KCl) and fully dilated with hCGRP, then this relaxation was reversed by the cumulative addition of CGRP-receptor antagonists (complete details follow).
Tissue Samples. Autopsy samples of human arteries were obtained from vendors (ABS Inc. or NDRI). All vessels were transported on ice-cold HEPES buffer (composition in mM: NaCl 130, KCl 4, KH2PO4 1.2, MgSO4 1.2, CaCl2 1.8, Glucose 6, NaHCO3 4, HEPES 10, EDTA 0.025). Upon receipt, the vessels were placed in cold Kreb's buffer (composition in mM: NaCl 118.4, KCl 4.7, KH2PO4 1.2, MgSO4 1.2, CaCl2 1.8, Glucose 10.1, NaHCO3 25) saturated with carbogen (5% CO2 and 95% oxygen).
Isolated Tissue Baths. The vessels were cleaned of connective tissues and cut into cylindrical segments of 4-5 mm in length. The vessels were then mounted in tissue baths between two stainless steel hooks; one of which is fixed and the other of which was connected to a force displacement transducer. The vessel tension was continuously recorded using a data acquisition system (Powerlab, ADInstruments, Mountain View, Calif.) connected to the transducer. The tissue baths containing Krebs buffer and mounted vessels were temperature (37° C.) and pH (7.4) controlled with continuous bubbling of carbogen. The artery segments were allowed to equilibrate for about 30-45 min until a stable resting tone was achieved. Prior to the assay, vessels were primed (conditioned) with 100 mM KCl and subsequently washed. The vessels were pre-contracted with 10 mM KCl and fully dilated with 1 nM hCGRP. Concentration-response curves to CGRP-receptor antagonists were performed by the cumulative addition of drugs in half log units in fully dilated vessels. At each concentration, the effects of the drugs were expressed as % reversal of CGRP-induced relaxation in each vessel. The actual assay and data analysis were performed for each vessel individually, fitting the concentration-response data to a four parameter logistic function by non-linear regression analysis, to estimate the EC50 values.

[3] = target: T2, human CGRP receptor (SK-N-MC cells) (Homo sapiens, UniProt O60894+Q16602); assay: Cyclic AMP Assay, functional antagonism of CGRP-induced cyclic AMP formation; type: cell-based
T2 construct: SK-N-MC cells that endogenously express the human CGRP receptor; endogenous in cells; host or cells: SK-N-MC cells
Experimental: Functional Antagonism. Antagonism of the compounds of invention was determined by measuring the formation of cyclic AMP (adenosine 3′5′-cyclic monophosphate) in SK-N-MC cells that endogenously express the human CGRP receptor. […] For cyclic AMP measurements SK-N-MC cells were incubated with 0.3 nM CGRP alone or in the presence of various concentrations of the compounds of invention for 30 min at room temperature. […] Cyclic AMP was extracted using the lysis reagent and its concentration was determined by radioimmunoassay using RPA559 cAMP SPA Direct Screening Assay Kit (Amersham Pharmacia Biotech). IC50 values were calculated using Excel fit.

[4] = displacement of [125I]-CGRP, SK-N-MC homogenate, read-out: CGRP binding IC50
[5] = SK-N-MC cells, 0.3 nM CGRP, read-out: cAMP Function IC50

T2 sequence (Q16602 23-461): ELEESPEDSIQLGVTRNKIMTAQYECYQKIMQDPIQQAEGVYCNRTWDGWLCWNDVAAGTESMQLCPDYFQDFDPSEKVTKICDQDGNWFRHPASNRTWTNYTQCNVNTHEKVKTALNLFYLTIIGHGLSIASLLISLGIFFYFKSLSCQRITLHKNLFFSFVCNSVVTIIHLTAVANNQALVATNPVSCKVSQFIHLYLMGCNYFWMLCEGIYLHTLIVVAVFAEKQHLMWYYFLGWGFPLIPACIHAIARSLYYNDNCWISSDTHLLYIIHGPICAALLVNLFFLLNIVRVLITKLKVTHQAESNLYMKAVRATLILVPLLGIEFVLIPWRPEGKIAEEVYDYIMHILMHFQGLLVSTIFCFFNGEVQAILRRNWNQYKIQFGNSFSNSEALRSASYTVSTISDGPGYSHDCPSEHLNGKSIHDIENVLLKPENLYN
T2 sequence (O60894 27-148): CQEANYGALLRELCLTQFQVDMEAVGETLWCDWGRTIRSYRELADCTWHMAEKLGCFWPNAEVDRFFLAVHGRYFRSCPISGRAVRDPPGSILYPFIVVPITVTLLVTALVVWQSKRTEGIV
T1 sequence (Q16602 23-461): as the sequence (Q16602 23-461) above
T1 sequence (O60894 27-148): as the sequence (O60894 27-148) above

O=C1Nc2ccccc2C2(CCN(C(=O)N[C@H](Cc3csc4ccccc34)C(=O)N3CCC(N4CCCCC4)CC3)CC2)O1 [Example 64, N-[(1R)-1-(Benzo[b]thien-3-ylmethyl)-2-[1,4′-bipiperidin]-1′-yl-2-oxoethyl]-1,2-dihydro-2-oxospiro-[4H-3,1-benzoxazine-4,4′-piperidine]-1′-carboxamide]
IC50 [1, 4]: 10 to 100 nM
EC50 [2]: 10 to 100 nM

O=C(C[C@H](Nc1cc(Cl)ccc1[N+](=O)[O-])C(=O)N1CCC(N2CCCCC2)CC1)N1CCC(N2Cc3ccccc3NC2=O)CC1 [Example 87, (L)-1-[1,4′]Bipiperidinyl-1′-yl-2-(5-chloro-2-nitro-phenylamino)-4-[4-(2-oxo-1,4-dihydro-2H-quinazolin-3-yl)-piperidin-1-yl]-butane-1,4-dione]
IC50 [3, 5]: 10 to 100 nM
IC50 [1, 4]: 10 to 100 nM

Cc1nc(N[C@@H](CC(=O)N2CCC(N3Cc4ccccc4NC3=O)CC2)C(=O)N2CCC(N3CCCCC3)CC2)nc2nn[nH]c12 [Example 92, (L)-1-[1,4′]Bipiperidinyl-1′-yl-2-(7-methyl-1H-[1,2,3]triazolo[4,5-d]pyrimidin-5-ylamino)-4-[4-(2-oxo-1,4-dihydro-2H-quinazolin-3-yl)-piperidin-1-yl]-butane-1,4-dione]
IC50 [3, 5]: 100 to 1000 nM
IC50 [1, 4]: 10 to 100 nM

CCC(C)CN1CCN(C(=O)C(Cc2ccc3[nH]ncc3c2)NC(=O)N2CCC(N3Cc4ccccc4NC3=O)CC2)CC1 (stereo not drawn) [Example 40a, 4-(2-Oxo-1,4-dihydro-2H-quinazolin-3-yl)-piperidine-1-carboxylic acid{1-(1H-indazol-5-ylmethyl)-2-[4-(2-methyl-butyl)-piperazin-1-yl]-2-oxo-ethyl}-amide]
IC50 [3, 5]: < 10 nM
IC50 [1, 4]: < 10 nM

COC(=O)C(Cc1cc(C)c2[nH]ncc2c1)NC(=O)N1CCC(N2Cc3ccccc3NC2=O)CC1 (racemic) [Example 12, (±)-3-(7-Methyl-1H-indazol-5-yl)-2-{[4-(2-oxo-1,4-dihydro-2H-quinazolin-3-yl)-piperidine-1-carbonyl]-amino}-propionic acid methyl ester]
IC50 [3, 5]: 100 to 1000 nM
IC50 [1, 4]: 10 to 100 nM

COc1ccc(C(=O)N[C@@H](CC(=O)N2CCC(N3Cc4ccccc4NC3=O)CC2)C(=O)N2CCC(N3CCCCC3)CC2)cc1 [Example 99, (L)-N-{1-([1,4′]Bipiperidinyl-1′-carbonyl)-3-oxo-3-[4-(2-oxo-1,4-dihydro-2H-quinazolin-3-yl)-piperidin-1-yl]-propyl}-4-methoxy-benzamide]
IC50 [3, 5]: > 1000 nM
IC50 [1, 4]: > 1000 nM

O=C1CC2(CCN(C(=O)N[C@H](Cc3csc4ccccc34)C(=O)N3CCC(N4CCCCC4)CC3)CC2)c2ccccc2N1 [Example 62, N-[(1R)-1-(Benzo[b]thien-3-ylmethyl)-2-[1,4-bipiperidin]-1-yl-2-oxoethyl]-3′,4′-dihydro-2-oxospiro-[piperidine-4,4′(1H)-quinoline]-1-carboxamide]
IC50 [3, 5]: 10 to 100 nM
IC50 [1, 4]: 10 to 100 nM

Cc1cc(CC(NC(=O)N2CCC(N3Cc4ccccc4NC3=O)CC2)C(=O)N2CCN(c3ccccn3)CC2)cc2cn[nH]c12 (racemic) [Example 22, (±)-4-(2-Oxo-1,4-dihydro-2H-quinazolin-3-yl)-piperidine-1-carboxylic acid[1-(7-methyl-1H-indazol-5-ylmethyl)-2-oxo-2-(4-pyridin-2-yl-piperazin-1-yl)-ethyl]-amide]
IC50 [3, 5]: < 10 nM
IC50 [1, 4]: < 10 nM

O=C(C[C@H](NCc1ccc2[nH]ncc2c1)C(=O)N1CCC(N2CCCCC2)CC1)N1CCC(N2Cc3ccccc3NC2=O)CC1 [Example 94, (L)-1-[1,4′]Bipiperidinyl-1′-yl-2-((5′-indazolyl)-methyl-amino)-4-[4-(2-oxo-1,4-dihydro-2H-quinazolin-3-yl)-piperidin-1-yl]-butane-1,4-dione]
IC50 [3, 5]: 100 to 1000 nM
IC50 [1, 4]: 100 to 1000 nM

O=C(NC(Cc1ccc2[nH]ccc2c1)C(=O)N1CCC2(CC1)OCCO2)N1CCC(n2c(=O)[nH]c3ccccc32)CC1 (racemic) [Example 8, (±)-4-(2-Oxo-2,3-dihydro-benzoimidazol-1-yl)-piperidine-1-carboxylic acid[2-(1,4-dioxa-8-aza-spiro[4.5]dec-8-yl)-1-(1H-indol-5-ylmethyl)-2-oxo-ethyl]-amide]
IC50 [3]: 100 to 1000 nM
IC50 [1]: 100 to 1000 nM

Cc1cc(CC(CC(=O)N2CCC3(CC2)OC(=O)Nc2ccccc23)C(=O)N2CCCCC2)cc2cn[nH]c12 (racemic) [Example 77, (±)-2-(7-Methyl-1H-indazol-5-ylmethyl)-1-(piperidin-1-yl)-4-[1′,2′-dihydro-2′-oxospiro-[4H-3′,1-benzoxazine-4,4′-piperidinyl]-butane-1,4-dione]
IC50 [3, 5]: 10 to 100 nM
IC50 [1, 4]: 10 to 100 nM

C#CCNC(=O)C(CC(=O)N1CCC(N2Cc3ccccc3NC2=O)CC1)Cc1cc(C)c2[nH]ncc2c1 (racemic) [Example 84, (±)-2-(7-Methyl-1H-indazol-5-ylmethyl)-4-oxo-4-[4-(2-oxo-1,4-dihydro-2H-quinazolin-3-yl)-piperidin-1-yl]-N-prop-2-ynyl-butyramide]
IC50 [3, 5]: 10 to 100 nM
IC50 [1, 4]: 10 to 100 nM

Cc1cc(CC(CC(=O)N2CCC(N3Cc4ccccc4NC3=O)CC2)C(=O)N2CC(C)OC(C)C2)cc2cn[nH]c12 (racemic) [Example 73, (±)-1-(2,6-Dimethyl-morpholin-4-yl)-2-(7-methyl-1H-indazol-5-ylmethyl)-4-[4-(2-oxo-1,4-dihydro-2H-quinazolin-3-yl)-piperidin-1-yl]-butane-1,4-dione]
IC50 [3, 5]: 10 to 100 nM
IC50 [1, 4]: 10 to 100 nM

O=C(NC(Cc1ccc2[nH]ncc2c1)C(=O)N1CCN(C(=O)OCc2ccccc2)CC1)N1CCC(N2Cc3ccccc3NC2=O)CC1 (stereo not drawn) [Example 38, 4-(3-(1H-Indazol-5-yl)-2-{[4-(2-oxo-1,4-dihydro-2H-quinazolin-3-yl)-piperidine-1-carbonyl]-amino}-propionyl)-piperazine-1-carboxylic acid benzyl ester]
IC50 [3, 5]: 10 to 100 nM
IC50 [1, 4]: 10 to 100 nM

Cc1cc(CC(NC(=O)N2CCC3(CC2)N=C(c2ccccc2)NC3=O)C(=O)N(C)C)cc2cn[nH]c12 (racemic) [Example 36, (±)-4-Oxo-2-phenyl-1,3,8-triaza-spiro[4,5]dec-1-ene-8-carboxylic acid[1-dimethylcarbamoyl-2-(7-methyl-1H-indazol-5-yl)-ethyl]amide]
IC50 [3, 5]: 10 to 100 nM
IC50 [1, 4]: 10 to 100 nM

Cc1cc(CC(NC(=O)N2CCC3(CC2)CC(=O)Nc2ccccc23)C(=O)N2CCC(N3CCCCC3)CC2)cc2cn[nH]c12 (racemic) [Example 31, (±)-1-(7-Methyl-1H-indazol-5-ylmethyl)-2-[1,4-bipiperidin]-1-yl-2-oxoethyl]3′,4′-dihydro-2′-oxospiro-[piperidine-4,4′-(1H)-quinoline]-1-carboxamide]
IC50 [3, 5]: < 10 nM
IC50 [1, 4]: < 10 nM

O=C(NC(Cc1ccc2[nH]ncc2c1)C(=O)N1CCC(N2Cc3ccccc3NC2=O)CC1)N1CCC(N2Cc3ccccc3NC2=O)CC1 (stereo not drawn) [Example 37, 4-(2-Oxo-1,4-dihydro-2H-quinazolin-3-yl)-piperidine-1-carboxylic acid{1-(1H-indazol-5-ylmethyl)-2-oxo-2-[4-(2-oxo-1,4-dihydro-2H-quinazolin-3-yl)-piperidin-1-yl]-ethyl}-amide]
IC50 [3, 5]: 10 to 100 nM
IC50 [1, 4]: < 10 nM

Cc1cc(CC(NC(=O)N2CCC3(CC2)OC(=O)Nc2ccccc23)C(=O)N2CCCCC2)cc2cn[nH]c12 (racemic) [Example 26, (±)-1-(7-Methyl-1H-indazol-5-ylmethyl)-2-(1-piperidinyl)-2-oxoethyl]-1′,2′-dihydro-2′-oxospiro-[4H-3′,1-benzoxazine-4,4′-piperidine]-1-carboxamide]
IC50 [3, 5]: 10 to 100 nM
IC50 [1, 4]: 10 to 100 nM
